From patent publication US12551532B2, “Long-acting amylin receptor agonists and uses thereof” (Eli Lilly and Company, priority 2021, dated 2026)
Starred links: 1 amine or outer side, 2 acyl side, 3 side chain; linkers in the order of their positions; H or OH if unused. Positions of bridges follow the written chain, without caps; N, C: chain ends. Non-standard residues stand in square brackets, D forms with d. Residues, ends and D or L forms follow the SMILES beside them. Groups on a side chain read outwards from the residue. *: point of attachment. C20 diacid = O=C(O)CCCCCCCCCCCCCCCCCCC(=O)*; γGlu = O=C(O)[C@H](CCC(=O)[*:2])N[*:1]; αMeF = C[C@](N)(Cc1ccccc1)C(=O)O; NMeD = CN[C@@H](CC(=O)O)C(=O)O; NMeN = CN[C@@H](CC(N)=O)C(=O)O; Orn = NCCC[C@H](N)C(=O)O; CH2 = C([*:1])[*:2]

Columns and labels:
human CT receptors = molecular target: T1, human CT receptors (Homo sapiens, UniProt P30988); experiment: hCTR cAMP functional activity (HTRF); type: cell-based; details: ±SE; UMUC3 cells overexpressing hCTR; relative EC50
T1 construct: expressed in transfected cells
T1 sequence (P30988 25-474): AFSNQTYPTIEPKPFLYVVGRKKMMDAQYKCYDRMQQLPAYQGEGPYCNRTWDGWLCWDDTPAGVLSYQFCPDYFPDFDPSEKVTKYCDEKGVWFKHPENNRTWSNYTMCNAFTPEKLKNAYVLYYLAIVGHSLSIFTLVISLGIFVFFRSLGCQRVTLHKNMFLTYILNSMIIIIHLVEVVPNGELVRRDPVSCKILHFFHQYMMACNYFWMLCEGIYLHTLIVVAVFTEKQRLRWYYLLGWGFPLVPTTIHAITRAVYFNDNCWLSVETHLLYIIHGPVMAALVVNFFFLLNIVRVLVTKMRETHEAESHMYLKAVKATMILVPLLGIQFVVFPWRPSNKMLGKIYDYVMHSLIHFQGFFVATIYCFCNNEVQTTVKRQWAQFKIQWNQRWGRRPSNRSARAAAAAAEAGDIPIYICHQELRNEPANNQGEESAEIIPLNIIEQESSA
Method: The AMY1 and CT receptors are GPCRs that are functionally coupled to Gas proteins. […] In vitro activity of peptides is measured by the amount of cAMP formed in human AMY1R and CTR overexpressed cells.
Human CT receptors are stably expressed in human urinary bladder cells (UM-UC-3, or UMUC3) under control of a pcDNA expression vector. […] After 20 days under selection, the mRNA levels from different clones are measured to confirm the expression of hCTR. To determine the function of over-expressed hCTR cells, the intracellular cAMP levels in response to salmon calcitonin are measured and compared to the expression of hCTR mRNA in each clone.
hAMY1R cells are cultured in MEM 1× (Corning) supplemented with 10% FBS, 1% antibiotic/antimycotic solution, 1 mM sodium pyruvate, 1×MEM NEAA, 1× GlutaMAX-I, 200 μg/mL hygromycin B, and 0.4 μg/mL puromycin. The hCTR cells are cultured in the same medium lacking the puromycin. Cultured cells are grown to 70% confluency and then incubated overnight with fresh medium.
Peptides diluted in DMSO are added (200 nL/well) in a 1:3 dilution series using ECHO acoustic liquid handler (Beckman). Cultured cells are detached with TrypLE Express (Gibco), resuspended in assay buffer, and 10 μL containing 1200 cells/well (hCTR) or 1500 cells/well (hAMY1R) are dispensed into each well. The plates are incubated at room temperature for 1 hour.
The amount of intracellular cAMP is quantitated using HTRF technology (Homogeneous Time Resolved Fluorescence; Cisbio) as per vendor instructions. Briefly, 10 μL cAMP-d2 conjugate and 10 μL anti-cAMP-cryptate conjugate in lysis buffer are incubated with the treated cells at room temperature for 60 min. […] The raw data are converted to cAMP amount (pmol/well) using a cAMP standard curve generated for each experiment.

[1] = molecular target: T2, human calcitonin receptor (hCTR) (Homo sapiens, UniProt P30988); experiment: hCTR competitive radioligand binding filter assay (125I-hCT); details: ± SE; membranes of hCTR overexpressing cells
T2 construct: expressed in transfected cells; host or cells: membranes of UM-UC-3 (UMUC3) cells stably expressing human CTa
T2 sequence (P30988 25-474): T1 sequence (P30988 25-474)
Method: The equilibrium dissociation constants (Kd) for the various receptor/radioligand interactions are determined from saturation binding analysis using the same reagents and buffers as described below for compound testing.
The receptor binding affinity (Ki) of rAMY, hCT, and hAMY agonist peptides on hCTR membranes is determined from a competitive radioligand binding filter assay.

human dendritic cells = type: cell-based
Method: MAPPS profiles the MHC-II presented peptides on human dendritic cells treated with tested molecules. CD14+ cells, isolated from the PBMCs of normal human donors, are cultured and differentiated into immature DCs by incubation with IL-4 and GM-CSF. On day 4, culture media is replaced with fresh media containing tested molecules. On day 5, LPS is added to transform the cells into mature DCs. On day 6, cells are lysed in RIPA buffer with protease inhibitors. Immunoprecipitation of MHC-II complexes are performed using biotinylated anti-MHC-II antibody coupled to streptavidin beads. The bound complex is eluted and filtered. The isolated MHC-II peptides are analyzed by a mass spectrometer. Peptide identifications are generated by an internal proteomics pipeline using search algorithms with no enzyme and a bovine/human database with test sequences appended to the database. A KNIME workflow is used to process the identification files from the samples. Peptides identified from the test articles are aligned against the parent sequence of the test molecule. The output is used to determine the percentage of donors displaying MHC-II peptides from regions of the test molecule. Compound II, Compound IV, Compound VI, Compound VIII, a compound representative of U.S. Pat. No. 9,023,789 (hereinafter “Compound '789”), and Pramlintide are tested in the MAPPs assay.

[2] = test system: pre-existing antibodies (ADA) in normal human serum; experiment: Pre-existing reactivity (ACE assay format); details: >50 donors; treatment-naive normal human serum
Method: This assay assesses the presence of pre-existing antibodies (ADA) against the tested molecules in treatment-naive normal human serum (NHS). Diluted NHS is incubated overnight on a Pierce Streptavidin plate coated with biotinylated tested molecules. On the following day, the captured binding proteins are acid eluted, hard-coated to a Mesoscale (MSD) plate, and detected with a combination of biotin-labeled molecule and ruthenium-labeled streptavidin. If anti-drug antibodies are present, they will bind the labeled drug and the resulting signal is referred to as Tier 1 signal (expressed as electrochemiluminescence). This signal is confirmed in Tier 2 by adding excess unlabeled tested molecule in the detection step, which results in the suppression of the Tier 1 signal. The presence of pre-existing anti-drug antibodies is expressed as magnitude of the 90th percentile of Tier 2 inhibition. The 90th percentile of Tier 2 inhibition, is a statistical tool to assess the magnitude of specificity of Tier 1 reactivity. This 90th percentile is used to rank molecules in terms of ADA risk.

| EC50 (human CT receptors) | Ki [1] | MAPPS Assay donors displayed peptides (human dendritic cells) | MAPPS Assay immunogenicity risk (human dendritic cells) | Pre-existing Reactivity 90th percentile T2 inhibition [2] | SMILES | peptides displayed on MHC-II complexes (human dendritic cells) |
| --- | --- | --- | --- | --- | --- | --- |
| 6.14 ± 0.764 nM | 665 ± 113 nM | no peptides | Low Risk | 33.2% | CC(C)C[C@H](NC(=O)[C@H](CCCN)NC(=O)CNC(=O)[C@@H](NC(=O)[C@H](C)NC(=O)[C@@H]1CSCSC[C@H](NC(=O)CC[C@H](N)C(=O)O)C(=O)N[C@@H](CC(N)=O)C(=O)N[C@@H]([C@@H](C)O)C(=O)N[C@@H](C)C(=O)N[C@@H]([C@@H](C)O)C(=O)N1)[C@@H](C)O)C(=O)N[C@@H](C)C(=O)N[C@@H](CCC(=O)O)C(=O)N[C@@](C)(Cc1ccccc1)C(=O)N[C@@H](CC(C)C)C(=O)N[C@H](C(=O)N[C@@H](CCCNC(=N)N)C(=O)N[C@@H](CO)C(=O)N[C@@H](CO)C(=O)N[C@@H](CC(N)=O)C(=O)N(C)[C@@H](CC(=O)O)C(=O)N[C@@H](Cc1ccccc1)C(=O)NCC(=O)N1CCC[C@H]1C(=O)N[C@@H](CCCCNC(=O)CC[C@H](NC(=O)CC[C@H](NC(=O)CCCCCCCCCCCCCCCCCCC(=O)O)C(=O)O)C(=O)O)C(=O)N[C@@H](CC(C)C)C(=O)N1CCC[C@H]1C(=O)N1CCC[C@H]1C(=O)N[C@H](C(=O)N[C@@H](CCC(=O)O)C(=O)N[C@H](C(=O)NCC(=O)N[C@@H](CO)C(=O)N[C@@H](CC(N)=O)C(=O)N[C@H](C(=O)N[C@@H](Cc1ccc(O)cc1)C(N)=O)[C@@H](C)O)C(C)C)[C@@H](C)O)C(C)C [Compound IV, γE-CNTATCATG-Orn-LAE-αMeF-LVRSSN-NMeD-FGPKLPPTEVGSNTY-NH2] (γGlu-CNTATCATG[Orn]LAE[αMeF]LVRSSN[NMeD]FGPK([γGlu-γGlu-C20 diacid])LPPTEVGSNTY-NH2; linker 1-6 via CH2) | no peptides displayed on MHC-II complexes |
| 13.2 ± 2.23 nM | 235 ± 45 nM | no peptides | Low Risk | 43.9% | CC[C@H](C)[C@H](NC(=O)[C@@H]1CCCN1C(=O)CNC(=O)[C@H](Cc1ccccc1)NC(=O)[C@H](CC(=O)O)N(C)C(=O)[C@H](CC(N)=O)NC(=O)[C@H](CO)NC(=O)[C@H](CO)NC(=O)[C@H](CCCNC(=N)N)NC(=O)[C@@H](NC(=O)[C@H](CC(C)C)NC(=O)[C@](C)(Cc1ccccc1)NC(=O)[C@H](CCC(=O)O)NC(=O)[C@H](C)NC(=O)[C@H](CC(C)C)NC(=O)[C@H](CCCN)NC(=O)CNC(=O)[C@@H](NC(=O)[C@H](C)NC(=O)[C@@H]1CSCSC[C@H](NC(=O)[C@@H](N)CCCCNC(=O)CC[C@H](NC(=O)CC[C@H](NC(=O)CCCCCCCCCCCCCCCCCCC(=O)O)C(=O)O)C(=O)O)C(=O)N[C@@H](CCC(=O)O)C(=O)N[C@@H]([C@@H](C)O)C(=O)N[C@@H](C)C(=O)N[C@@H]([C@@H](C)O)C(=O)N1)[C@@H](C)O)C(C)C)C(=O)N[C@@H](CC(C)C)C(=O)N1CCC[C@H]1C(=O)N1CCC[C@H]1C(=O)N[C@H](C(=O)N[C@@H](CCC(=O)O)C(=O)N[C@H](C(=O)NCC(=O)N[C@@H](CO)C(=O)N[C@@H](CC(N)=O)C(=O)N[C@H](C(=O)N[C@@H](Cc1ccc(O)cc1)C(N)=O)[C@@H](C)O)C(C)C)[C@@H](C)O [Compound VI, KCETATCATG-Orn-LAE-αMeF-LVRSSN-NMeD-FGPILPPTEVGSNTY-NH2] (H-K([γGlu-γGlu-C20 diacid])CETATCATG[Orn]LAE[αMeF]LVRSSN[NMeD]FGPILPPTEVGSNTY-NH2; linker 2-7 via CH2) | no peptides displayed on MHC-II complexes |
| 2.34 ± 0.272 nM | 202 ± 45 nM | no peptides | Low Risk | 48.8% | CC(C)C[C@H](NC(=O)[C@H](CCCN)NC(=O)CNC(=O)[C@@H](NC(=O)[C@H](C)NC(=O)[C@@H]1CSCSC[C@H](NC(=O)CC[C@H](N)C(=O)O)C(=O)N[C@@H](CC(N)=O)C(=O)N[C@@H]([C@@H](C)O)C(=O)N[C@@H](C)C(=O)N[C@@H]([C@@H](C)O)C(=O)N1)[C@@H](C)O)C(=O)N[C@@H](C)C(=O)N[C@@H](CCC(=O)O)C(=O)N[C@@](C)(Cc1ccccc1)C(=O)N[C@@H](CC(C)C)C(=O)N[C@H](C(=O)N[C@@H](CCCNC(=N)N)C(=O)N[C@@H](CO)C(=O)N[C@@H](CO)C(=O)N[C@@H](CC(N)=O)C(=O)N(C)[C@@H](CC(N)=O)C(=O)N[C@@H](Cc1ccccc1)C(=O)NCC(=O)N1CCC[C@H]1C(=O)N[C@@H](CCCCNC(=O)CC[C@H](NC(=O)CC[C@H](NC(=O)CCCCCCCCCCCCCCCCCCC(=O)O)C(=O)O)C(=O)O)C(=O)N[C@@H](CC(C)C)C(=O)N1CCC[C@H]1C(=O)N1CCC[C@H]1C(=O)N[C@H](C(=O)N[C@@H](CCC(=O)O)C(=O)N[C@H](C(=O)NCC(=O)N[C@@H](CO)C(=O)N[C@@H](CC(N)=O)C(=O)N[C@H](C(=O)N[C@@H](Cc1ccc(O)cc1)C(N)=O)[C@@H](C)O)C(C)C)[C@@H](C)O)C(C)C [Compound II] (γGlu-CNTATCATG[Orn]LAE[αMeF]LVRSSN[NMeN]FGPK([γGlu-γGlu-C20 diacid])LPPTEVGSNTY-NH2; linker 1-6 via CH2) | no peptides displayed on MHC-II complexes |
